Earlier results as cited in US20220218792A1, “COMPOSITIONS TO PROMOTE THE HEALING OF SKIN ULCERS AND WOUNDS” (priority 2014, published 2022).

What was measured:
[1] = system: chronic wounds and ulcers; conditions: topically applied; deep partial-thickness burns, chronic leg ulcers and leprosy ulcers
[2] = system: wounds infected with Escherichia coli; conditions: topically applied, rats
[3] = for gastric tolerability: oral
[4] = not given; remark: listed apart in the source
[5] = system: Staphylococcus, Streptococcus, Neisseria, Escherichia, Proteus (indole-negative), Serratia, Salmonella, Shigella, Pseudomonas, Haemophilus, Vibrio; conditions: aerobic genera
[6] = system: strains of organisms from the susceptible genera
[7] = aqueous media at physiological pH
[8] = system: Peptostreptococcus (including Peptoniphilus, Finegoldia and Anaerococcus) and Fusobacterium; conditions: anaerobic genera
[9] = system: polymorphonuclear leukocytes
[10] = system: indole-positive Proteus spp., Klebsiella and Enterobacter spp.

Question: Which results are given for “GM-CSF: monomeric glycoprotein of 127 amino-acid residues, colony-stimulating factor (SEQ ID NO: 2)”?
Answer: healing of wounds and ulcers [1]: beneficial; bacterial counts [2]: reduced bacterial counts; wound closure [2]: accelerated wound closure

Question: For C[C@@H]1O[C@@H]1P(=O)(O)O [Fosfomycin calcium monohydrate], which “pH of 0.4% solution” value (0.4% solution) is on record?
Answer: 8.1-9.6

Question: What about the gastric tolerability [3] of the same compound?
Answer: less irritating to the stomach

Question: And the solubility in water [4]?
Answer: sparingly soluble

Question: What does the source list for C[C@@H]1O[C@@H]1P(=O)(O)O.NC(CO)(CO)CO [Fosfomycin trometamol]?
Answer: pH of 5% solution: 3.5-5.5; gastric tolerability [3]: well tolerated; solubility in water [4]: highly soluble

Question: For C[C@@H]1O[C@@H]1P(=O)(O)O [fosfomycin, [(2R,3S)-3-methyloxiran-2-yl]phosphonic acid], which bactericidal activity [5] is on record?
Answer: active

Question: And the “strains showing synergistic effect” value ([6]; early studies, various antibiotic combinations)?
Answer: 70-100 % of tested strains

Question: And the synergy rates ([6]; subsequent more extensive studies)?
Answer: 36-74%

Question: And the “stability in aqueous media” value [7]?
Answer: unstable

Question: And the “toxicity to mammalian cells and organs” value ([3]; intravenous doses of up to 0.5 g/kg/day in human patients)?
Answer: remarkably non-toxic

Question: What about the eosinophilia ([3]; patients) of the same compound?
Answer: 0.2%

Question: What about the “transient rashes (allergy)” value ([3]; patients) of the same compound?
Answer: 0.3 % of cases

Question: What about the “transiently raised liver enzymes” value ([3]; patients) of the same compound?
Answer: 0.3 % of cases

Question: What about the bactericidal activity [8] of the same compound?
Answer: active

Question: What about the “concentration in polymorphonuclear leukocytes relative to extracellular fluid” value [9] of the same compound?
Answer: twice

Question: And the bactericidal activity [10]?
Answer: less active

Question: For C[C@@H]1O[C@@H]1P(=O)(O)O [Fosfomycin disodium], which “pH of 5% solution” value is on record?
Answer: 9.0-10.5

Question: And the gastric tolerability [3]?
Answer: irritant to the stomach

Question: What about the solubility in water [4] of the same compound?
Answer: highly soluble
